This test can be described thus: Cleavage experiments with thiol cleavage agents, RP-HPLC (FIG. 77, 78A-B). As to conditions: RP-HPLC after 10 minutes of incubation with cleave reagent. The source says: In addition to these a variety of suitable cleaving agents can be used such as Bis(2-mercaptoethyl)sulfone (BMS) and N,N′-dimethyl-N,N-bis(mercaptoacetyl)hydrazine (DMH) (Singh et al., Bioorg. Chem., 22, 109-115 (1994). Reactions can be further catalyzed by inclusion of selenols (Singh et al. Anal Biochem. 1995 Nov. 20; 232(1):86-91 [18]). Borohydrides, such as sodium borohydrides can also be used for this purpose (Stahl et al., Anal. Chem., 1957, 29 (1), pp 154-155 [19]) as well as ascorbic acid (Nardai et al., J. Biol. Chem. 276, 8825-8828 (2001)). In addition, enzymatic methods for cleavage of disulfide bonds are also well known such as disulfide and thioreductase and can be used with compounds of the present invention (Holmgren et al., Methods in Enzymology, Volume 252, 1995, Pages 199-208 [21]).

Molecules are shown by their SMILES.

For `O[C@H](CS)[C@H](O)CS` (racemic) [DTT, dithiothreitol], the “composition of cleavage reaction mixture (extent of cleavage)” value (“composition of cleavage reaction mixture” for short) was “full cleavage of both linker and the 3′-protective groups”.

Take `NCCS` [cysteamine]: the “composition of cleavage reaction mixture” value is “full cleavage of both linker and the 3′-protective groups”.

`N[C@@H](CS)C(=O)O` [L-cysteine]: the “composition of cleavage reaction mixture” value was “full cleavage of both linker and the 3′-protective groups”.

For the molecule `OC(=S)CCC(O)=S` [dithiosuccinic acid], the “composition of cleavage reaction mixture” value is listed as “selective cleavage of 3′-O-protective group”.
